Test results: patent US11390580B2, “Anti-fungals targeting the synthesis of fungal shingolipids” (THE RESEARCH FOUNDATION FOR THE STATE UNIVERSITY OF NEW YORK, priority 2014, dated 2022)
≈ marks a conversion by molar mass, not a printed value. Where “and” joins values, the source holds several entries; their conditions need not be identical. Identical values can stand only once. Like-named read-outs stand apart in the source and are kept apart here.

Tests used:
C. neoformans H99 [1] = test: Comparison studies, intravenous (CNS) cryptococcosis survival; format: in vivo, mice
Protocol: For survival studies, 4-week old CBA/J female mice (Jackson Laboratory, Bar Harbor, Me.) were used. Total of forty mice were infected by tail vein injection of 200 μL containing 10^5 cells of C. neoformans H99 and were randomly separated into 5 groups (8 mice per group). Treatment started within 2 hours of infection. The treated mice received an intraperitoneal injection of 1.2 mg/kg/day of BHBM, 1, amphotericin B or 10 mg/kg/day of fluconazole in 100 μL final volume of PBS containing 0.4% DMSO. Untreated mice, received 100 μL of PBS/0.4% DMSO. Mice were fed ad-libitum and monitored closely for sign of discomfort and meningitis. Mice showing abnormal gait, lethargy, tremor, significant loss of body weight, or inability to reach water or food were sacrificed and survival was counted until that day.

[2] = test system: synthesis of GlcCer in C. neoformans cells; test: In vivo labeling with 3H palmitate, TLC of GlcCer; conditions: 3H palmitate labeling
Candida albicans SC-5314 = test: Animal studies for candidiasis (intravenous infection); format: in vivo, mice
Protocol: For survival studies, 8-week old CBA/J female mice (Jackson Laboratory) were used. Eight mice per treatment or control group were used. Mice were infected by intravenous inoculation of 100 μL containing 1×10^5 cells of Candida albicans SC-5314 strain. […] Untreated mice, received 100 μL of PBS/0.4% DMSO. Mice were feed ad-libitum and monitored closely for sign of discomfort. At the end of the survival study, tissue burden culture was performed in mice that survived the infection. Mice were sacrificed and their organs were extracted and homogenized in 10 ml sterile PBS using homogenizer. Organ homogenates were diluted 10 times in PBS, and 100 μL was plated on YPD agar plates and incubated at 30° C. for 72 hours for CFU count.

P. murina [3] = test system: P. murina
C. neoformans (H99) = test: Transmission electron microscopy of treated cells; conditions: 4 μg/mL, 6 hours
[4] = test system: synthesis of GlcCer in mammalian (J774) cells; test: In vivo labeling with 3H palmitate, TLC of GlcCer; format: cell-based, murine; conditions: 3H palmitate labeling
L2 cell line = test: In vitro toxicity; format: cell-based
Cryptococcus neoformans = test: In vitro susceptibility testing (MIC); format: cell-based
[5] = In vivo toxicity in uninfected mice; conditions: treated daily for 60 days
P. murina [6] = test system: P. murina; remark: listed apart in the source
C. neoformans H99 [7] = test: Animal studies for cryptococcosis (intranasal infection); format: in vivo, mice
Candida spp = test: In vitro susceptibility testing; format: cell-based; conditions: most Candida spp examined
C. neoformans [8] = test: Resistance assay, daily passages in sub-MIC drug; conditions: 15 days of passages below the MIC
[9] = test system: C. neoformans sphingolipids; test: Sphingolipid levels by TLC and lipid mass spectrometry; format: cell-based, Cryptococcus neoformans; conditions: TLC, confirmed by mass spectrometry
Protocol: Labeling fungal cells. […] Samples without drug were included as control. Before lipid extraction, lipid internal standards (C17 ceramide and C17 sphingosine) were added. Lipids were then extracted following the methods of […] and Bligh and Dyer and one fourth of the sample was aliquoted for determination of the inorganic phosphate. The remainder of the sample was subjected to base hydrolysis and then analyzed using LC/MS. Results were normalized with the inorganic phosphate levels.

[10] = In vitro toxicity, MTT assay; conditions: mouse, J774.16 macrophage cells
C. neoformans [11] = test: Synergistic assay (fractional inhibitory index, FIC)
P. murina [12] = test: Animal studies for pneumocystosis, CD4-depleted mice; conditions: mouse, in vivo
Solubility = format: physicochemical; conditions: at 1 mg/ml concentration
A549 cell line = test: In vitro toxicity; format: cell-based
C. neoformans [13] = test: In vitro killing assay (time-kill, CFU); format: cell-based, Cryptococcus neoformans
Protocol: At the illustrated time points, aliquots were taken and diluted and 100 μL was plated onto yeast peptone dextrose (YPD) plates. YPD plates were incubated in a 30° C. incubator and, after 72 hours, colony forming units (CFU) were counted and recorded.

Pneumocystis jiroveci = test: In vitro testing by ATP content (luciferin-luciferase); conditions: read-out: percentage inhibition of ATP
Pneumocystis murina = test: as above; conditions: read-out: percentage inhibition of ATP

In the case of C[C@@H]1[C@H](O)[C@@H](C)/C=C/C=C/C=C/C=C/C=C/C=C/C=C/[C@H](O[C@@H]2O[C@H](C)[C@@H](O)[C@H](N)[C@@H]2O)C[C@@H]2O[C@](O)(C[C@@H](O)C[C@@H](O)[C@H](O)CC[C@@H](O)C[C@@H](O)CC(=O)O[C@H]1C)C[C@H](O)[C@H]2C(=O)O [Amphotericin B], the average survival (C. neoformans H99 [1]; IP, 1.2 mg/kg/day BHBM, 1, amphotericin B, 10 mg/kg/day fluconazole) is reported as 23.5 ± 6.5 days.
In the case of O=C(NN=Cc1ccc(O)c(Br)c1)c1cccc(Br)c1 [Compound 1, 3-bromo-N′-(3-bromo-4-hydroxybenzylidene) benzohydrazide], the “inhibition of the synthesis of GlcCer” value [2] is reported as “significantly inhibit the synthesis of GlcCer”, the mice alive (Candida albicans SC-5314; 1.2 mg/kg/day intraperitoneally, after 21 days of infection) is reported as 75% and the “clearance of infection (tissue burden)” value (Candida albicans SC-5314; day 21, surviving treated mice) is reported as “able to clear C. albicans infection”. For the same compound, the survival (P. murina [3]; 14 days of treatment) was “improved survival”, the “number of asci in the lung” value (P. murina [3]; day 14) was “significantly decreased” and the “number of vacuoles per μm^2 of cell surface area” value (C. neoformans (H99)) was 0.93±0.54. For the same compound, the “inhibition of the synthesis of GlcCer” value [4] was “no significant changes”, the “inhibition of the synthesis of GlcCer” value ([4]; listed as #5285729) was “not in mammalian (J774) cells” and the toxicity (L2 cell line) was “slight to moderate toxicity”. For the same compound, the “antifungal activity of derivatives” value (Cryptococcus neoformans) was “improved activity”, the MFC (Cryptococcus neoformans; Cryptococcus neoformans, read-out: MFC (minimum fungicidal concentration)) was 1.2 µg/mL (≈ 3.01 µM) and the “appearance, weight, physical activity and behavior” value [5] was “appeared normal”. The “toxicity in mice immunosuppressed with corticosteroids” value (P. murina [6]) was “some toxicity”, the “asci and troph burdens vs vehicle” value (P. murina [6]; 1.25 mg/kg/day and 12.5 mg/kg/day for 14 days) was “significantly reduced” and the “survival vs control steroid negative controls” value (P. murina [6]; 1.25 and 12.5 mg/kg/day, 14 days) was “did not increase survival”. For the same compound, the mice surviving infection (C. neoformans H99 [7]; 1.2 mg/Kg/day intraperitoneally, up to 60 days) was 70%, the “fungal burden in brain” value (C. neoformans H99 [7]; 1.2 mg/Kg/day, day 60) was “No C. neoformans cells were found in brains” and the “fungal burden in lung” value (C. neoformans H99 [7]; 1.2 mg/Kg/day, day 60, compared to infected untreated mice) was “decrease the fungal burden in the lung”. For the same compound, the brain histology (C. neoformans H99 [7]; day 60) was “no fungal cells and normal structure”, the lung histology (C. neoformans H99 [7]; day 60) was “granulomatous response limited in few areas of the lung” and the in vitro susceptibility (Candida spp) was “resistant”. The development of resistance (C. neoformans [8]) was “do not develop resistance”, the sphingosine level [9] was “accumulation of sphingosines” and the EC50 at 48 h [10] was 50 µg/mL (≈ 126 µM). The FIC index (C. neoformans [11]; combined with Amphotericin B) was 0.77, the FIC index (C. neoformans [11]; combined with Fluconazole) was 0.47 and the interaction (C. neoformans [11]; combined with Tunicamycin) was “additive”. The FIC index (C. neoformans [11]; combined with caspofungin) was 1, the signs of toxicity (P. murina [12]) was “no signs of toxicity” and the DMSO required (Solubility) was 50%. For the same compound, the toxicity (A549 cell line) was “slight to moderate toxicity”, the type of killing (C. neoformans [13]; time-kill assay) was “time-dependent killing” and the dead cells (C. neoformans [13]; within 24 hours) was 100%.
N=C(N)c1ccc(OCCCCCOc2ccc(C(=N)N)cc2)cc1 [Pentamidine, reference compound] showed an inhibition at 1 µg/mL (Pneumocystis jiroveci; 24 h) of 45.7%, an inhibition at 1 µg/mL (Pneumocystis jiroveci; 48 h) of 86.5% and an inhibition at 1 µg/mL (Pneumocystis jiroveci; 72 h) of 84.2%. It also gave an inhibition at 1 µg/mL (Pneumocystis jiroveci; 96 h) of 81.4%, an inhibition at 1 µg/mL (Pneumocystis murina; 24 h) of 78.2% and an inhibition at 1 µg/mL (Pneumocystis murina; 48 h) of 80.3%. For the same compound, the inhibition at 1 µg/mL (Pneumocystis murina; 72 h) was 74.1% and the inhibition at 1 µg/mL (Pneumocystis murina; 96 h) was 27.8%.
For OC(Cn1cncn1)(Cn1cncn1)c1ccc(F)cc1F [fluconazole], the average survival (C. neoformans H99 [1]; mouse, in vivo) was 10 ± 2 days and 10.0 ± 2.0 days.
